The term Kd denotes a measure of binding affinity in units of concentration.

The text below walks through data of PMC5976863, “The Active Components of Fuzheng Huayu Formula and Their Potential Mechanism of Action in Inhibiting the Hepatic Stellate Cells Viability – A Network Pharmacology and Transcriptomics Approach” (Frontiers in Pharmacology, 2018).

This assay has as its target T1, peroxisome proliferator activator receptor gamma (PPARG) (Homo sapiens, UniProt P37231).
T1 sequence (P37231 1-505): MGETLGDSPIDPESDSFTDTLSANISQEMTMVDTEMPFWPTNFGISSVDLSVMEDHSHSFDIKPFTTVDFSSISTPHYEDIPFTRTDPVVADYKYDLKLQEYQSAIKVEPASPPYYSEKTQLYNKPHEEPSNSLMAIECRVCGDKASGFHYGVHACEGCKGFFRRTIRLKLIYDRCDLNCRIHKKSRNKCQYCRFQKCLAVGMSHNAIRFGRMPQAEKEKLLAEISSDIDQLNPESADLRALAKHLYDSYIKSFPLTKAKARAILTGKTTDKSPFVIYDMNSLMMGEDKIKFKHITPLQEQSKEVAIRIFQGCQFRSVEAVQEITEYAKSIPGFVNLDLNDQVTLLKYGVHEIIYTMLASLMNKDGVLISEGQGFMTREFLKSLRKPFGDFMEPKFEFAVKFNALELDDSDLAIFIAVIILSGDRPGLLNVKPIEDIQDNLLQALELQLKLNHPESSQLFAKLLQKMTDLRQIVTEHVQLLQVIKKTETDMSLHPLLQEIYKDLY
As to the kind of experiment: SPR (Biacore T200), PPARG immobilized on CM5 chip. It is filed as binding.

Like-named read-outs stand apart in the source and are kept apart here.

On to `CCCCC/C=C/C=C1/C(=O)C=C[C@@H]1C/C=C\CCCC(=O)O` [15d-PGJ2, reference compound], for which binding was put at a Kd of 9.8 µM. As to `O=c1c(O)c(-c2ccc(O)cc2)oc2cc(O)cc(O)c12` [Kaempferol], under “read-out: Kd”, the Kd amounted to 51 µM.

As to `O=C(/C=C/c1ccc(O)c(O)c1/C=C/c1ccc(O)c(O)c1)O[C@H](Cc1ccc(O)c(O)c1)C(=O)O` [Salvianolic acid A], the equilibrium dissociation constant (Kd) (read-out: Kd) is 3.5 µM. Take `COc1cc2c(c(OC)c1OC)-c1c(cc3c(c1OC)OCO3)CC(C)C(C)C2` (stereo not shown) [schisandrin B]: for the setting “read-out: Kd”, the Kd was found to be 22 µM.
